Test results taken from patent US5061794A, “Cephalosporin derivatives, and antibacterial agents” (priority 1986, dated 1991).
≈ marks a conversion by molar mass, not a printed value. Where two headings read alike, the source gives them in different places.

Experiments:
Ps. cepacia 23 = assay: in vitro antibacterial activity, agar plate dilution method (MIC); type: cell-based, Pseudomonas cepacia; conditions: Burkholderia cepacia, 16 h; Ps. cepacia 23; 10^6 CFU/ml; read-out: Minimum Inhibitory Concentration (MIC)
Procedure: (§1) The in vitro antibacterial activities of the compounds of the present invention against various microorganisms, were measured by the following agar plate dilution method. One platinum loopfull of each test microorganism incubated overnight in Mueller Hinton broth, was inoculated to Mueller Hinton agar (inoculum size: 10^6 CFU/ml). Such culture media containing various antibiotics in various concentrations were prepared. After incubation at 37° C. for 16 hours, the minimum inhibitory concentrations (MIC: μg/ml) were measured.

E. coli CSH2 (RK1) = assay: microbe, parasite or virus in culture; type: cell-based; conditions: Escherichia coli, 16 h, read-out: Minimum Inhibitory Concentration (MIC), *E. coli CSH2 (RK1), lactamase-producing strain; 10^6 CFU/ml
Procedure: as §1

Ps. aeruginosa IF03445 = assay: in vitro antibacterial activity, agar plate dilution method (MIC); type: cell-based, Pseudomonas aeruginosa; conditions: Pseudomonas aeruginosa, 16 h; Ps. aeruginosa IF03445; 10^6 CFU/ml; read-out: Minimum Inhibitory Concentration (MIC)
Procedure: as §1

Ps. aeruginosa AK 109 = assay: as above; type: cell-based, Pseudomonas aeruginosa; conditions: Pseudomonas aeruginosa, AK109, 16 h, Ps. aeruginosa AK 109; 10^6 CFU/ml; read-out: Minimum Inhibitory Concentration (MIC)
Procedure: as §1

M. morganii GN5407 = assay: as above; type: cell-based; conditions: Morganella morganii, 10^6 CFU/ml
Procedure: as §1

E. cloacae Nek 39 = assay: as above; type: cell-based; conditions: Enterobacter cloacae, NEK39, 16 h; *E. cloacae Nek 39, lactamase-producing strain; 10^6 CFU/ml; read-out: Minimum Inhibitory Concentration (MIC)
Procedure: as §1

E. cloacae 963 = assay: as above; type: cell-based; conditions: 10^6 CFU/ml
Procedure: as §1

S. marcescens IAM 1184 = assay: as above; type: cell-based; conditions: Serratia marcescens, IAM1184, 16 h, read-out: Minimum Inhibitory Concentration (MIC)
Procedure: as §1

S. marcescens No. 16-2 = assay: as above; type: cell-based; conditions: Serratia marcescens, NO.162, 16 h; *S. marcescens No. 16-2, lactamase-producing strain; 10^6 CFU/ml; read-out: Minimum Inhibitory Concentration (MIC)
Procedure: as §1

P. vulgaris HX-19 = assay: as above; type: cell-based; conditions: Proteus vulgaris, HX19, 16 h, P. vulgaris HX-19; 10^6 CFU/ml; read-out: Minimum Inhibitory Concentration (MIC)
Procedure: as §1

K. pneumoniae PCI-602 = assay: as above; type: cell-based; conditions: Klebsiella pneumoniae, PCI602, 16 h, 10^6 CFU/ml
Procedure: as §1

S. aureus 209P NIHJ-JC1 = assay: as above; type: cell-based; conditions: Staphylococcus aureus, 16 h, 10^6 CFU/ml, 37° C., 16 hours
Procedure: as §1

E. coli CSH(RE45) = assay: microbe, parasite or virus in culture; type: cell-based; conditions: Escherichia coli, 16 h, read-out: Minimum Inhibitory Concentration (MIC), *E. coli CSH(RE45), lactamase-producing strain; 10^6 CFU/ml
Procedure: as §1

Ps. aeruginosa AKR17 = assay: in vitro antibacterial activity, agar plate dilution method (MIC); type: cell-based, Pseudomonas aeruginosa; conditions: Pseudomonas aeruginosa, 16 h; Ps. aeruginosa AKR17; 10^6 CFU/ml; read-out: Minimum Inhibitory Concentration (MIC)
Procedure: as §1

E. coli NIHJ JC2 = assay: as above; type: cell-based; conditions: Escherichia coli, NIHJJC2, 16 h, read-out: Minimum Inhibitory Concentration (MIC), E. coli NIHJ JC2, 10^6 CFU/ml, 37° C.
Procedure: as §1

K. pneumoniae No. 42 = assay: as above; type: cell-based; conditions: Klebsiella pneumoniae, NO.42, 16 h, read-out: Minimum Inhibitory Concentration (MIC), *K. pneumoniae No. 42, lactamase-producing strain; 10^6 CFU/ml
Procedure: as §1

K. oxytoca GN10650 = assay: as above; type: cell-based; conditions: Klebsiella oxytoca, GN10650, 16 h, read-out: Minimum Inhibitory Concentration (MIC), *K. oxytoca GN10650, lactamase-producing strain; 10^6 CFU/ml
Procedure: as §1

P. vulgaris No. 33 = assay: as above; type: cell-based; conditions: Proteus vulgaris, NO.33, 16 h, read-out: Minimum Inhibitory Concentration (MIC), *P. vulgaris No. 33, lactamase-producing strain; 10^6 CFU/ml
Procedure: as §1

E. coli GN5482 = assay: as above; type: cell-based; conditions: Escherichia coli, GN5482, 16 h, read-out: Minimum Inhibitory Concentration (MIC)
Procedure: as §1

A. calcoaceticus No. 4 = assay: as above; type: cell-based, Acinetobacter calcoaceticus; conditions: Acinetobacter calcoaceticus, NO.4, 16 h, A. calcoaceticus No. 4; 10^6 CFU/ml; read-out: Minimum Inhibitory Concentration (MIC)
Procedure: as §1

## CO/N=C(\C(=O)N[C@@H]1C(=O)N2C(C(=O)O)=C(COC(C)=O)CS[C@H]12)c1csc(N)n1 [cefotaxime, reference compound]
Ps. cepacia 23
  MIC: 6.25 µg/mL (≈ 13.7 µM)
E. coli CSH2 (RK1)
  MIC: 0.0125 µg/mL (≈ 0.0274 µM)
Ps. aeruginosa IF03445
  MIC: 2.5 µg/mL (≈ 5.49 µM)
Ps. aeruginosa AK 109
  MIC: 12.5 µg/mL (≈ 27.4 µM)
M. morganii GN5407; 16 h, *M. morganii GN5407, lactamase-producing strain, read-out: Minimum Inhibitory Concentration (MIC)
  MIC: 0.05 µg/mL (≈ 0.11 µM)
E. cloacae Nek 39
  MIC: 1.56 µg/mL (≈ 3.43 µM)
E. cloacae 963; Enterobacter cloacae, 16 h, E. cloacae 963, read-out: Minimum Inhibitory Concentration (MIC)
  MIC: 0.05 µg/mL (≈ 0.11 µM)
S. marcescens IAM 1184
  MIC: 0.0125 µg/mL (≈ 0.0274 µM)
S. marcescens No. 16-2
  MIC: 6.25 µg/mL (≈ 13.7 µM)
P. vulgaris HX-19
  MIC: < 0.006 µg/mL
K. pneumoniae PCI-602; K. pneumoniae PCI-602, read-out: Minimum Inhibitory Concentration (MIC)
  MIC: < 0.006 µg/mL
S. aureus 209P NIHJ-JC1; S. aureus 209P NIHJ-JC1, read-out: Minimum Inhibitory Concentration (MIC)
  MIC: 1.56 µg/mL (≈ 3.43 µM)

## CC(C)(O/N=C(\C(=O)N[C@@H]1C(=O)N2C(C(=O)O)=C(CSc3nnc(-c4ccccc4)o3)CS[C@H]12)c1csc(N)n1)C(=O)O [compound 3, disodium 7β-[2-(2-aminothiazol-4-yl)-2-(1-carboxylate-1-methylethoxyimino)acetamido]3-(5-phenyl-1,3,4-oxadiazol-2-yl) thiomethyl-3-cephem-4-carboxylate, reference compound]
E. coli CSH(RE45)
  MIC: 1.56 µg/mL
E. coli CSH2 (RK1)
  MIC: 1.56 µg/mL
Ps. aeruginosa AKR17
  MIC: > 100 µg/mL
Ps. aeruginosa IF03445
  MIC: 50 µg/mL
Ps. aeruginosa AK 109
  MIC: 50 µg/mL
M. morganii GN5407; GN5407, 16 h, read-out: Minimum Inhibitory Concentration (MIC), *M. morganii GN5407, lactamase-producing strain
  MIC: 1.56 µg/mL
E. cloacae Nek 39
  MIC: 25 µg/mL
E. cloacae 963; Enterobacter cloacae, 963, 16 h, read-out: Minimum Inhibitory Concentration (MIC), E. cloacae 963
  MIC: 6.25 µg/mL
E. coli NIHJ JC2
  MIC: 3.12 µg/mL
K. pneumoniae No. 42
  MIC: 3.12 µg/mL
K. oxytoca GN10650
  MIC: 3.12 µg/mL
P. vulgaris No. 33
  MIC: 0.39 µg/mL
S. marcescens IAM 1184
  MIC: 1.56 µg/mL
S. marcescens No. 16-2
  MIC: 25 µg/mL
P. vulgaris HX-19
  MIC: < 0.006 µg/mL
K. pneumoniae PCI-602; read-out: Minimum Inhibitory Concentration (MIC), K. pneumoniae PCI-602
  MIC: 0.1 µg/mL
E. coli GN5482
  MIC: 3.12 µg/mL
S. aureus 209P NIHJ-JC1; read-out: Minimum Inhibitory Concentration (MIC), S. aureus 209P NIHJ-JC1
  MIC: 6.25 µg/mL
A. calcoaceticus No. 4
  MIC: 100 µg/mL
